Experimental data as given in patent publication US12594262B2, “CAI nanoemulsions” (ForwardVue Pharma, Inc., priority 2019, dated 2026).

What was measured:
[1] = Stability of CAI to autoclave sterilization, RP-HPLC analysis with UV detection; format: physicochemical; details: autoclaving, for instance 121° C. for about 30 minutes
Procedure: Stable sterile formulations can then be prepared by autoclaving for sufficient time at temperatures suitable for effectively killing the microorganisms that may be present in the formulation, for instance, 121° C. for about 30 minutes.

[2] = cited from earlier work
[3] = cited from earlier work; remark: listed apart in the source
[4] = cited from earlier work; remark: listed apart in the source
[5] = humans, single 5 mg peribulbar injection; cited from earlier work

SMILES | decomposition of CAI or formation of new impurities after sterilization [1] | plasma concentrations associated with unacceptable toxicity [2] | toxic effects observed in clinical studies ([3]; doses required to achieve circulating levels projected for inhibition of pathological neovascularization) | serious side effect of clinical use ([3]; systemic administration, two cases described (Berlin et al. 2002)) | physiological tissue concentrations [4] | concentration detected in the vitreous cavity [5] [ng/mL]
NC(=O)c1nnn(Cc2cc(Cl)c(C(=O)c3ccc(Cl)cc3)c(Cl)c2)c1N [CAI] | no decomposition of CAI or formation of new impurities could be detected | above 100 micromolar | cerebellar ataxia, peripheral neuropathy and exacerbation of depression | loss of vision | 1-10 μM | 
C[C@@H]1C[C@H]2[C@@H]3CCC4=CC(=O)C=C[C@]4(C)[C@@]3(F)[C@@H](O)C[C@]2(C)[C@@]1(O)C(=O)CO [Dexamethasone] |  |  |  |  |  | 13
